Reference: ChEMBL document CHEMBL3714731, “Heterocyclic compounds for the inhibition of pask” (2014)

Columns and labels:
[1] = molecular target: T1, PAS domain-containing serine/threonine-protein kinase (Homo sapiens, UniProt Q96RG2); assay: Inhibition of human recombinant PASK using Ulight-peptide substrate incubated for 2 hrs by TR-FRET assay
[2] = molecular target: Casein kinase II subunit alpha' (Homo sapiens, UniProt P19784); assay: Inhibition of GST-tagged full-length purified human CK2a2 using RRRDDDSDDD substrate incubated for 120 mins in presence of [33P]ATP by scintillation counting based biochemical assay
Casein kinase II subunit alpha', sequence (P19784 whole entry, the tested form may be a part): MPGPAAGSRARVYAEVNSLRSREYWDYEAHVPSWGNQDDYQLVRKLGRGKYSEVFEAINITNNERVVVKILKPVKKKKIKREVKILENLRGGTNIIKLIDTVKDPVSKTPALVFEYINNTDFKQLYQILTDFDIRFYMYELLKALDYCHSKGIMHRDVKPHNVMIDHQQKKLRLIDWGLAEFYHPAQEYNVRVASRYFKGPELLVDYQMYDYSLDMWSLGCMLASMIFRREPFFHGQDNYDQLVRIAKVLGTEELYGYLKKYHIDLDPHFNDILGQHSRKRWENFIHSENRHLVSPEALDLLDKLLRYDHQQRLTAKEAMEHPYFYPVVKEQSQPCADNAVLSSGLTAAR

[3] = molecular target: T1, PAS domain-containing serine/threonine-protein kinase; assay: Inhibition of N-terminal GST-tagged human recombinant PASK kinase domain (879 to 1323 residues) expressed in insect cells using MBP protein substrate incubated for 120 mins in presence of [33P]ATP by scintillation counting based radiochemical assay
[4] = molecular target: Serine/threonine-protein kinase pim-1 (Homo sapiens, UniProt P11309); assay: Inhibition of human full-length 6xHis-tagged PIM1 expressed in insect cells using S6K1Rsk2 peptide-2 substrate in presence of [33P]ATP incubated for 120 mins by scintillation counting based biochemical assay
Serine/threonine-protein kinase pim-1, sequence (P11309 whole entry): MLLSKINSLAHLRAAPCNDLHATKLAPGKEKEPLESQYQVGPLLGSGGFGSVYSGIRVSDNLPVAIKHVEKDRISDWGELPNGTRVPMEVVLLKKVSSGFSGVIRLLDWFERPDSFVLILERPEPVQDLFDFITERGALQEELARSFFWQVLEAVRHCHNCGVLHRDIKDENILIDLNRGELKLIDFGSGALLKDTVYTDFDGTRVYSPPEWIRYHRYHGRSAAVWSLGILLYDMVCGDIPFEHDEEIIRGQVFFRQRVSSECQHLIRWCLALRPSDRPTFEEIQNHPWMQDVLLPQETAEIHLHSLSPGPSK

T1 sequence (Q96RG2 whole entry, the tested form may be a part): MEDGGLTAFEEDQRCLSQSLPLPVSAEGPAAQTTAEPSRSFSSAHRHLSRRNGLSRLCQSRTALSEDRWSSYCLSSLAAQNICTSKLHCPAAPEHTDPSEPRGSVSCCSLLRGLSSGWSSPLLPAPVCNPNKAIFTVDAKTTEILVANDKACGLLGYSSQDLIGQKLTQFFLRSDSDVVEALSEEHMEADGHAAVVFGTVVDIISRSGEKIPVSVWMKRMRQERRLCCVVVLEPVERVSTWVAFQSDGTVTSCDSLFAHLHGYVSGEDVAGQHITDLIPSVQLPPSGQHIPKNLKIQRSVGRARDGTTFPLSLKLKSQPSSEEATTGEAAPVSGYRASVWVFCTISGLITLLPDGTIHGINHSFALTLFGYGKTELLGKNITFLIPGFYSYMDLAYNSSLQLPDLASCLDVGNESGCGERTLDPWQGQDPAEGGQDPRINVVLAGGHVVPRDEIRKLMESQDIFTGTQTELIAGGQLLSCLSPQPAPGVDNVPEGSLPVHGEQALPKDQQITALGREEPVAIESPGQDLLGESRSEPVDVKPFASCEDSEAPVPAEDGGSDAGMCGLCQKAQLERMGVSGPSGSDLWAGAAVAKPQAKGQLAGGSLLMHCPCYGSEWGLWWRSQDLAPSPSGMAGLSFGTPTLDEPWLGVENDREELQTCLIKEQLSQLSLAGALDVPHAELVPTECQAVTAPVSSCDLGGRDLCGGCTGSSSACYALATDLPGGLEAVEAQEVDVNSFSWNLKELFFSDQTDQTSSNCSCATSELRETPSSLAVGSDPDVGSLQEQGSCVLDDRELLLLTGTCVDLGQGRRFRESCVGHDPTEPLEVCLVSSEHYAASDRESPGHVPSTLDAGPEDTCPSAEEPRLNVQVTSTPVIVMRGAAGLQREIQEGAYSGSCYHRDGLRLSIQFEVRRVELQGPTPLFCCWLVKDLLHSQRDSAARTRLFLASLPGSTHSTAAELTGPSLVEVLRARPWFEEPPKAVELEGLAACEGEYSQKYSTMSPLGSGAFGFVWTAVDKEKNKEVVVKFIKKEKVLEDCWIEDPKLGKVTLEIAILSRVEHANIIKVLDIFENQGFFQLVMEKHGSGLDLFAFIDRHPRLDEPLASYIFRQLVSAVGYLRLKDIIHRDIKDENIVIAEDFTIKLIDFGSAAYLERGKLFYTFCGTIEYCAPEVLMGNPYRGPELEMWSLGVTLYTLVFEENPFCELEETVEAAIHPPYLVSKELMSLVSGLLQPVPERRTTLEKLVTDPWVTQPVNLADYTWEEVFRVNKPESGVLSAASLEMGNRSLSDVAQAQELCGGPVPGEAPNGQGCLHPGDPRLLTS

IC50 [1] | IC50 [2] | IC50 [3] | IC50 [4] | Structure (SMILES)
≤ 10 µM |  |  |  | Cc1coc(-c2cnn3c(=O)cc(-c4ccc5[nH]ncc5c4)[nH]c23)n1
 | ≤ 10 µM | ≤ 10 µM | ≤ 10 µM | COc1cc(-c2cc(=O)n3ncc(CC#N)c3[nH]2)ccc1Cl
 | ≤ 10 µM | ≤ 10 µM | ≤ 10 µM | CCc1cnc(-c2cnn3c(=O)cc(-c4ccc5c(cnn5CC)c4)[nH]c23)o1
